Common to all, as to assay type: cell-based, rat
The subject of test [1] is INS-1 832/3 cells. The experiment in a line: TAQMAN real-time quantitative RT-PCR of miRNA expression in INS-1 832/3 cells. As to the method:
(§1) INS-1 832/3 and 832/13 cells were maintained in RPMI 1640 with 10% FBS and 11 mM glucose. For GLP-1 treatment, GLP-1 (7-37) amide (ABCHEM) was added in the media in the presence of 16 mM glucose for 24 hours. Total RNA was extracted with TRIZOL as in Example 1. Rat islet isolation and treatment was as follows. Pancreatic islets of Langerhans were isolated from the pancreas of normal Sprague-Dawley rats (Charles River, Ind.) by collagenase digestion and discontinuous Ficoll gradient separation (15). Islets were cultured for 2 hours in RPMI 1640 medium with 11 mM glucose for recovery from the isolation process. Then 100-200 islets were treated with 50 nM GLP-1 in the media with 11 mM glucose for 24 hours. RNA was extracted with TRIZOL as in Example 1 for quantification of microRNA species.
Fluorogenic TAQMAN detector probes specific for miR-132 (Cat# TM457), miR-212 (Cat# TM515), miR-375 (Cat#TM564), and miR-217 (Cat#1133) were purchased from Applied Biosystems (Foster City, Calif.). The TAQMAN RT-PCR reactions were performed according to the manufacturer's instructions.
Relative miRNA levels for the miRNAs of interest were determined by real-time reverse transcription reaction using the ABI PRISM 7900 Sequence Detection System from Applied Biosystems (Foster City, Calif.) according to the manufacturer's protocol. Briefly, 10 ng of total RNA was mixed with 1 U MultiScribe Reverse Transcriptase, 0.25 U RNase Inhibitor, 3 μL hairpin-looped miRNA-specific RT primer, 1 mM dNTPs and 1× Reverse Transcription Buffer in a total volume of 15 μL. The mixture was incubated at 16° C. for 30 minutes, 42° C. for another 30 minutes, and the reaction was stopped by heating to 85° C. for 5 minutes. Real time PCR reaction was set up in 20 μL volume with 1.33 μL first strand cDNA, 1× TAQMAN MicroRNA Assay Mix and 1× TAQMAN Universal PCR Master Mix. After activation of the AMPLITAQ Gold DNA polymerase at 95° C. for 10 minutes, 40 cycles of two-step PCR were run (95° C. for 15 seconds and 60° C. for 60 seconds). Data were collected and analyzed with SDS v.2.2.2 software (Applied Biosystems). 4.5S RNA or U6 probe (Applied Biosystems) was used as a reference to determine the relative abundance of each miRNA in different samples. TAQMAN RT-PCR was performed according the manufacturer's instructions.
The absolute miRNA levels were determined by reverse transcription reactions in GeneAmp PCR system 9700 followed by amplification using the ABI PRISM 7900HT Sequence Detection System from Applied Biosystems (Foster City, Calif.) through 40 cycles. 4.5S RNA (H) probe (Cat#TM1716) or U6 (Cat#TM1973) was used as reference to determine the relative abundance of each miRNA in different samples. The induction of miR-132 and miR-212 expression by GLP-1 started around 4 hour post-GLP-1 treatment, peaked at 24 hours and was sustained up to 48 hours (FIG. 2).
(In general: In qPCR the cycle at which signal appears reflects the starting amount.)

The subject of a further test is INS-1 832/13 cells. The test can be described thus: TAQMAN analysis of miRNA expression in INS-1 832/13 cells. The following applies: 24 hours post-GLP-1 treatment. As to the method:
as §1
Fluorogenic TAQMAN detector probes specific for miR-132 (Cat# TM457), miR-212 (Cat# TM515), miR-375 (Cat#TM564), and miR-217 (Cat#1133) were purchased from Applied Biosystems (Foster City, Calif.). […]
Relative miRNA levels for the miRNAs of interest were determined by real-time reverse transcription reaction using the ABI PRISM 7900 Sequence Detection System from Applied Biosystems (Foster City, Calif.) according to the manufacturer's protocol. […] Data were collected and analyzed with SDS v.2.2.2 software (Applied Biosystems). […]

Test [2] concerns INS-1 832/3 cells. The experiment in a line: release of miRNAs from INS-1 832/3 cells into culture media (TAQMAN, normalized to U6 RNA). Conditions: 50 nM GLP-1, after 4 or 8 hours. As for the experimental part: INS1 832/3 cells were treated with 50 nM GLP-1 (7-37) amide (BACHEM) in RPMI 1640 with 10% FBS and 11 mM glucose in 24-well plates for 4, 8, 16, and 24 hours. Cell culture media was collected, 100 μL out of 1 mL media per sample was used for RNA extraction following the protocol for plasma samples (Mitchell et al., Proc. Natl. Acad. Sci. USA 105: 10513-10518). Briefly, RNA isolation was performed using the mirVana PARIS kit following the manufacturer's protocol (Ambion), except that samples were extracted twice with acid phenol-chloroform. The average of about 80 μL of eluate was recovered from each extraction. A fixed volume of 1.67 μL of the RNA eluate was used as input into the reverse transcription reaction. RNA was reverse transcribed using the TAQMAN miRNA Reverse Transcription Kit and miRNA-specific stem-loop primers in 5 μL volume (Applied BioSystems). About 2.25 μL of diluted PCR product (combining 5 μL RT product with 28.9 μL H2O) was added to 2.75 μL of PCR assay reagents to generate a PCR of 5 μL of total volume. The relative miRNA levels were determined by real-time RT-PCR using the ABI PRISM 7900 Sequence Detection System from Applied Biosystems (Foster City, Calif.) through 40 cycles as described in Example 2. TAQMAN reagents were purchased from Applied Biosystems (Foster City, Calif.). […]

The mark [3] stands for this setting: 50 nM GLP-1, 50 nM Exendin-4, 5 μM IBMX, 1 μM Foskolin (FIG. 6A).

The source of these data is patent US20120034608A1, “MICRORNA AS A BIOMARKER OF PANCREATIC ISLET BETA-CELL ENGAGEMENT” (Merck Sharp & Dohme Corp., priority 2009, published 2012).

Take GLP-1 (7-37) amide: in the test on INS-1 832/3 cells [1] (setting [3]), the miR-132 expression result is reported as “significantly increased”, the miR-212 expression entry is “significantly increased” and the miR-375 expression result is listed as “remained unchanged”. In the test with INS-1 832/3 cells [1] (50 nM GLP-1 time course), the “induction of miR-132 and miR-212 expression sustained up to” value was “up to 48 hours”; the “peak of induction of miR-132 and miR-212 expression” value worked out at 24 h; the “start of induction of miR-132 and miR-212 expression, time post-GLP-1 treatment” value is recorded as “around 4 hour”. Also, in the test on INS-1 832/3 cells [1] (GLP-1 treatment), the “induction of miR-132 and miR-212 (subsequent TAQMAN analyses)” value is listed as “confirmed the induction”; the “induction of miR-217 (subsequent TAQMAN analyses)” value is on record as “not miR-217”. Further, in the test with INS-1 832/13 cells, the “increase of miR-132 expression in response to GLP-1” value was “not observed” and the “increase of miR-212 expression in response to GLP-1” value was “not observed”. In the test on INS-1 832/3 cells [2], the “miR-132 in the medium compared to vehicle” value is on record as “remained unchanged” and the “miR-212 in the medium compared to vehicle” value is given as “remained unchanged”.
